Results: patent publication US20260001849A1, “NOVEL B0AT1 INHIBITOR” (MITSUBISHI TANABE PHARMA CORPORATION, priority 2023, published 2026)

Biological target: T1, Human BOAT1 (Homo sapiens, UniProt Q695T7)
T1 construct: expressed in transfected cells
T1 sequence (Q695T7 1-634): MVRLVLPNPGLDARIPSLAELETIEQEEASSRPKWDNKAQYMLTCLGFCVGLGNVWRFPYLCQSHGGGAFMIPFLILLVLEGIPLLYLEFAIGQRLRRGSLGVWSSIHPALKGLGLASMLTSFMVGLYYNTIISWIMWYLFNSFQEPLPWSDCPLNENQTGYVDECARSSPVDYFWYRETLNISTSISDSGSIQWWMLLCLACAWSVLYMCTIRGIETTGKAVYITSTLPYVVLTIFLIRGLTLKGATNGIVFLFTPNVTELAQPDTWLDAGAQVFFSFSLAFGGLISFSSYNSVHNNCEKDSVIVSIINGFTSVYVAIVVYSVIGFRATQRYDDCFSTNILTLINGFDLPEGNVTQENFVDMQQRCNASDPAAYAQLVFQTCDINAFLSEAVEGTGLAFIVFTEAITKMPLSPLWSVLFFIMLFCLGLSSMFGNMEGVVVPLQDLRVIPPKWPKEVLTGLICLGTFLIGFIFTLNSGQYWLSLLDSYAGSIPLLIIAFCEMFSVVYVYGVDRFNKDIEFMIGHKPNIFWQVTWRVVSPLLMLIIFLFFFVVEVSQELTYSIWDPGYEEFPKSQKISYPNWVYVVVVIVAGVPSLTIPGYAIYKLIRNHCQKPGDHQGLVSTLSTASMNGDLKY
Assay: hBOAT1 inhibitory test (phenylalanine uptake)
Format: cell-based
Conditions: Human BOAT1 stable expression CHO cells; [3H]-L-phenylalanine uptake, phenylalanine 0.25 mM; radioactivity after 100 to 200 min; read-out: hB0AT1 IC50
Experimental: A test compound dissolved in dimethyl sulfoxide (DMSO) was added to a 96 well plate for solid phase radioactivity measurement containing a scintillator at the bottom of the well (final concentration of DMSO 0.5%). DMSO alone as a control and DMSO containing N-(4-bromophenyl)-3,5-dichloro-2-hydroxybenzamide (final concentration […]) for the measurement of BOAT1 non-specific uptake were similarly added at 0.5 μL per well. Human BOAT1 stable expression CHO cells suspended in a buffer (buffer containing 96 mM sodium chloride, 2 mM potassium chloride, 1.8 mM calcium chloride, 1 mM magnesium chloride, 0.01% bovine serum albumin, and 10 mM 2-[4-(2-hydroxyethyl)-1-piperazinyl]ethanesulfonic acid) were added by 90 μL to 75000 cells/well. After standing at ordinary temperature for 30 min or longer, the cells were subjected to a phenylalanine uptake experiment. A buffer containing L-phenylalanine and [3,4,5-3H]-L-phenylalanine was added by 10 μL per well (final concentration of phenylalanine 0.25 mM), and the radioactivity of the plate bottom surface at ordinary temperature was measured with a scintillation counter over time, and the radioactivity value after 100 to 200 min was analyzed.

In order of falling IC50:
1. C[C@@H]1CN(CCCC(=O)O)C[C@H](c2ccccc2)N1C(=O)CNC(=O)/C=C/c1ccc(C(F)(F)F)cc1F [I-371]  3380 nM
2. C[C@@H]1CN(C(=O)CNC(=O)/C=C/c2ccc(C(F)(F)F)cc2F)[C@@H](c2ccccc2)CN1CCCc1nn[nH]n1 [I-379, (E)-3-[2-fluoro-4-(trifluoromethyl)phenyl]-N-[2-[(2S,5R)-4-[3-(1,2,3λ4,4-tetraazacyclopenta-2,4-dien-5-yl)propyl]-5-methyl-2-phenylpiperazin-1-yl]-2-oxoethyl]prop-2-enamide]  2520 nM
3. CCC(F)(F)c1ccc(/C=C/C(=O)NCC(=O)N2CCc3cc(CC(=O)O)ccc3C2)cc1 [I-227]  667 nM
4. O=C(O)CCCCc1ccc2c(c1)CCN(C(=O)CNC(=O)/C=C/c1ccc(C(F)(F)F)cc1)C2 [I-228]  462 nM
5. O=C(/C=C/c1ccc(C(F)(F)F)cc1F)NCC(=O)N1CCN(Cc2ccc(C(=O)O)cc2)CC1c1ccc(Cl)cc1 (centres unmarked) [I-251]  366 nM
6. O=C(/C=C/c1ccc(C(F)(F)F)cc1F)NCC(=O)N1CCc2cc(Cc3nn[nH]n3)cc(Cl)c2C1 [I-378, (E)-N-[2-[8-chloro-6-(1,2,3λ4,4-tetraazacyclopenta-2,4-dien-5-ylmethyl)-3,4-dihydro-1H-isoquinolin-2-yl]-2-oxoethyl]-3-[2-fluoro-4-(trifluoromethyl)phenyl]prop-2-enamide]  232 nM
7. O=C(/C=C/c1ccc(C(F)(F)F)cc1)NCC(=O)N1CCCC(C23CCC(C2)C3C(=O)O)C1 (centres unmarked) [I-229]  152 nM
8. C[C@H]1CN(CCCC(=O)O)C[C@H](c2ccccc2)N1C(=O)CNC(=O)/C=C/c1ccc(C(F)(F)F)cc1F [I-370]  143 nM
9. Cc1cc2c(cc1CC(=O)O)CCN(C(=O)CNC(=O)/C=C/c1ccc(C(F)(F)F)cc1)C2 [I-230]  124 nM
10. N#Cc1cc2c(cc1CC(=O)O)CCN(C(=O)CNC(=O)/C=C/c1ccc(I)cc1)C2 [I-222]  107 nM
11. CNC(=O)Cc1nc2c(s1)CCN(C(=O)CNC(=O)/C=C/c1ccc(C(F)(F)F)cc1F)C2 [I-376]  77 nM
12. O=C(O)Cc1cc2c(cc1Cl)CN(C(=O)CNC(=O)/C=C/c1ccc(C(F)(F)F)cc1F)CC2 [I-221]  71 nM
13. C[C@@H]1CN(C(=O)CNC(=O)/C=C/c2ccc(C(F)(F)F)cc2F)[C@@H](c2ccc(C3CC3)cc2)CN1CCC(=O)O [I-382, 3-[(2R,5S)-5-(4-cyclopropylphenyl)-4-[2-[[(E)-3-[2-fluoro-4-(trifluoromethyl)phenyl]prop-2-enoyl]amino]acetyl]-2-methylpiperazin-1-yl]propanoic acid]  63 nM
14. CNC(=O)Cc1cnn2c1CN(C(=O)CNC(=O)/C=C/c1ccc(C(F)(F)F)cc1)CC2 [I-374]  54 nM
15. CNC(=O)Cc1ccc2c(n1)CCN(C(=O)CNC(=O)/C=C/c1ccc(C(F)(F)F)cc1)C2 [I-377]  48 nM
16. O=C(O)CCc1cccc2c1CCN2C(=O)CNC(=O)/C=C/c1ccc(C(F)(F)F)cc1F [I-245]  45 nM
17. O=C(O)CCc1cccc2c1CCN2C(=O)CNC(=O)/C=C/c1ccc(C(F)(F)F)cc1 [I-246]  44 nM

Same assay, conditions: Human BOAT1 stable expression CHO cells; phenylalanine uptake, phenylalanine 0.25 mM; read-out: hB0AT1 IC50

In order of falling IC50:
1. C[C@H]1[C@H](c2ccccc2)N(C(=O)CNC(=O)/C=C/c2ccc(C(F)(F)F)cc2F)CCN1CCCC(=O)O [I-352]  3260 nM
2. O=C(O)CCCN1C[C@H](c2ccccc2)N(C(=O)CNC(=O)/C=C/c2ccc(C(F)(F)F)cc2F)C[C@H]1C(F)(F)F [I-399]  2890 nM
3. O=C(/C=C/c1ccc(C(F)(F)F)cc1F)NCC(=O)N1CCCC(N2CC[C@H](C(=O)O)C2)C1 (some centres unmarked) [I-360]  2860 nM
4. CC(CN1C[C@H](c2ccccc2)N(C(=O)CNC(=O)/C=C/c2ccc(C(F)(F)F)cc2F)C[C@H]1C)C(=O)O (some centres unmarked) [I-347]  2690 nM
5. CC(CCN1C[C@H](c2ccccc2)N(C(=O)CNC(=O)/C=C/c2ccc(C(F)(F)F)cc2F)C[C@H]1C)C(=O)O (some centres unmarked) [I-345]  1780 nM
6. O=C(O)C[C@@H]1CCN(C2CCCN(C(=O)CNC(=O)/C=C/c3ccc(C(F)(F)F)cc3F)C2)C1 (some centres unmarked) [I-362]  1400 nM
7. CN1CCN(C(=O)CNC(=O)/C=C/c2ccc(C(F)(F)F)cc2F)CC1c1cccc(C(=O)O)c1 (centres unmarked) [I-258]  1330 nM
8. O=C(/C=C/c1ccc(C(F)(F)F)cc1F)NCC(=O)N1CCCC(N2CC[C@@H](C(=O)O)C2)C1 (some centres unmarked) [I-359]  1110 nM
9. C[C@@H]1CN(C(=O)CNC(=O)/C=C/c2ccc(C(F)(F)F)cc2F)[C@@H](c2ccccc2)CN1CC(C)(C)C(=O)O [I-346]  1040 nM
10. O=C(O)C[C@H]1CCN(C2CCCN(C(=O)CNC(=O)/C=C/c3ccc(C(F)(F)F)cc3F)C2)C1 (some centres unmarked) [I-361]  879 nM
11. CNC(=O)Cn1cc2c(n1)CN(C(=O)CNC(=O)/C=C/c1ccc(C(F)(F)F)cc1)CC2 [I-282]  700 nM
12. CNC(=O)Cc1cc(CC(=O)O)cc2c1CN(C(=O)CNC(=O)/C=C/c1ccc(C(F)(F)F)cc1F)CC2 [I-336]  661 nM
13. O=C(O)Cc1ccccc1C1=CCCN(C(=O)CNC(=O)/C=C/c2ccc(C(F)(F)F)cc2F)C1 [I-260]  638 nM
14. C[C@@H]1CN(C(=O)CNC(=O)/C=C/c2ccc(C(F)(F)F)cc2F)[C@@H](c2ccccc2)CN1CC#CC(=O)O [I-320]  352 nM
15. O=C(O)CCCN1CCN(C(=O)CNC(=O)/C=C/c2ccc(C(F)(F)F)cc2F)C(c2noc3ccccc23)C1 (centres unmarked) [I-400]  292 nM
16. CNC(=O)Cn1ncc2c1CN(C(=O)CNC(=O)/C=C/c1ccc(C(F)(F)F)cc1)CC2 [I-283]  256 nM
17. O=C(O)CCCN1CCN(C(=O)CNC(=O)C=Cc2ccc(C(F)(F)F)cc2F)C(c2nc(-c3ccccc3)no2)C1 (centres unmarked) [I-402]  235 nM
18. CN1CCN(C(=O)CNC(=O)/C=C/c2ccc(C(F)(F)F)cc2F)CC1c1cccc(CC(=O)O)c1 (centres unmarked) [I-358]  223 nM
19. CC1(C)CN(C(=O)CNC(=O)/C=C/c2ccc(C(F)(F)F)cc2F)[C@@H](c2ccccc2)CN1CCCC(=O)O [I-259]  140 nM
20. O=C(O)CCCN1CCN(C(=O)CNC(=O)/C=C/c2ccc(C(F)(F)F)cc2F)C(c2cccc(C(F)(F)F)c2)C1 (centres unmarked) [I-262]  125 nM
21. C[C@@H]1CN(C(=O)CNC(=O)/C=C/c2ccc(C(F)(F)F)cc2F)[C@@H](c2ccccc2)CN1CCC(C)(C)C(=O)O [I-344]  122 nM
22. C[C@@H]1CN(C(=O)CNC(=O)/C=C/c2ccc(C(F)(F)F)cc2F)[C@@H](c2cccs2)CN1CCCC(=O)O [I-357]  107 nM
23. CC(C)(CCN1CCN(C(=O)CNC(=O)/C=C/c2ccc(C(F)(F)F)cc2F)C(c2ccc(Cl)cc2)C1)C(=O)O (centres unmarked) [I-254]  97 nM
24. CN(C)C(=O)CCc1cnn2c1CN(C(=O)CNC(=O)/C=C/c1ccc(C(F)(F)F)cc1)CC2 [I-275]  78 nM
25. O=C(O)CCCN1CCN(C(=O)CNC(=O)/C=C/c2ccc(C(F)(F)F)cc2F)C(C2CCCCC2)C1 (centres unmarked) [I-365]  69 nM
26. O=C(O)CCCN1CCN(C(=O)CNC(=O)/C=C/c2ccc(C(F)(F)F)cc2F)C(c2cccc(C3CC3)c2)C1 (centres unmarked) [I-256]  48 nM
27. NC(=O)Cc1ccc2c(c1)CN(C(=O)CNC(=O)/C=C/c1ccc(C(F)(F)F)cc1)CC2 [I-278]  40 nM
28. O=C(/C=C/c1ccc(C(F)(F)F)cc1)NCC(=O)N1CCn2ncc(CCC(=O)N3CCCC3)c2C1 [I-274]  34 nM
29. CNC(=O)Cc1ccc2c(c1)CCN(C(=O)CNC(=O)/C=C/c1ccc(C(F)(F)F)cc1)C2 [I-277]  30 nM
30. CNC(=O)Cc1nc2c(s1)CN(C(=O)CNC(=O)/C=C/c1ccc(C(F)(F)F)cc1F)CC2 [I-284]  25 nM
31. NC(=O)Cc1ccc2c(c1)CCN(C(=O)CNC(=O)/C=C/c1ccc(C(F)(F)F)cc1)C2 [I-273, (E)-N-[2-[6-(2-amino-2-oxoethyl)-3,4-dihydro-1H-isoquinolin-2-yl]-2-oxoethyl]-3-[4-(trifluoromethyl)phenyl]prop-2-enamide]  22 nM
32. CN(C)C(=O)Cc1cc(Cl)c2c(c1)CCN(C(=O)CNC(=O)/C=C/c1ccc(C(F)(F)F)cc1F)C2 [I-279]  21 nM
33. O=C(/C=C/c1ccc(C(F)(F)F)cc1F)NCC(=O)N1CCc2cc(CC(=O)NCCO)cc(Cl)c2C1 [I-280]  19 nM
34. O=C(O)CCCN1CCN(C(=O)CNC(=O)/C=C/c2ccc(C(F)(F)F)cc2F)[C@@H](c2ccc(C3CC3)cc2)C1 [I-263]  18 nM
35. NC(=O)Cc1cc(F)c2c(c1)CCN(C(=O)CNC(=O)/C=C/c1ccc(C(F)(F)F)cc1)C2 [I-276]  17 nM
36. CONC(=O)Cc1cc(Cl)c2c(c1)CCN(C(=O)CNC(=O)/C=C/c1ccc(C(F)(F)F)cc1F)C2 [I-281]  7 nM
